The record followed here is PubChem BioAssay AID588371 (Southern Research Specialized Biocontainment Screening …, 2011).

Values joined by “and” are separate entries in the source; they are usually repeats but may differ in a detail not shown here. Equal values may be shown once. Inconclusive results are not listed. Active and inactive are the calls of the source. No rule for the calls is given here.

Test system in the first assay: not listed separately
As to the kind of experiment: WNV inhibition in infected cells – cell-based, EC_1, probe candidates, dose response (AID 588371). The following applies: West Nile virus-infected cells, antiviral inhibition; at 50 µM (top of the series).
Consider `O=C(CSc1nc2ccccc2c(=O)n1-c1cc(Cl)cc(Cl)c1)NC1CCc2ccccc21` (stereo not given), for which the inhibition was 11.3% (inactive).

`O=C(CCSc1nc2cccc(F)c2c(=O)n1-c1cc(F)c(F)c(F)c1)Nc1ccc2c(c1)CCC2`: the inhibition is 9.08% (inactive).

As to `O=C(CSc1nc2ccccc2c(=O)n1-c1ccc(Cl)c(Cl)c1)Nc1cccc2c1CCC2`, the inhibition is -1.69% (inactive).

Consider `Cc1cnc(NC(=O)CSc2nc3ccccc3c(=O)n2-c2ccccc2)s1`, for which the inhibition was -1.61% (inactive).

As for `O=C(CSc1nc2cccc(F)c2c(=O)n1-c1ccc(Cl)c(F)c1)Nc1ccc2c(c1)CCC2`, the inhibition is -1.63% (inactive).

In the case of `O=C(CSc1nc2ccccc2c(=O)n1-c1ccccc1)Nc1nc(-c2ccccc2)cs1`, the inhibition is 0.7% (inactive).

As to `O=C(CSc1nc2cccc(F)c2c(=O)n1-c1ccccc1)Nc1ccc2c(c1)CCC2`, the inhibition is -0.4% (inactive).

Turning to `O=C(CSc1nc2cccc(F)c2c(=O)n1-c1ccc(F)c(F)c1)Nc1ccc2c(c1)CCC2`, the inhibition is 1.72% (inactive).

Consider `O=C(CSc1nc2cccc(F)c2c(=O)n1-c1ccccc1)Nc1ccc2ncsc2c1`, for which the inhibition is 1.43% (inactive).

In the case of `O=C(CSc1nc2ccccc2c(=O)n1-c1cc(Cl)cc(Cl)c1)Nc1nccs1`, the inhibition was 18.5% (inactive).

The same assay, now with this note: West Nile virus-infected cells, antiviral inhibition; at 100 µM (top of the series).
As to `O=C(CSc1nc2cccc(F)c2c(=O)n1-c1ccccc1)Nc1ccc2c(c1)OCO2`, the inhibition is 0.09% (inactive).

For the molecule `O=C(CSc1nc2ccccc2c(=O)n1-c1cc(Cl)cc(Cl)c1)Nc1cccc2ccccc12`, the inhibition was -0.85% (inactive).

Turning to `O=C(CSc1nc2ccccc2c(=O)n1-c1ccccc1)NC1CCCc2ccccc21` (stereo not given), the inhibition was -2% (inactive).

`O=C(CSc1nc2ccccc2c(=O)n1-c1ccccc1)Nc1cccc2ccccc12`: the inhibition is -1.05% (inactive).

Turning to `O=C(CCCCSc1nc2cccc(F)c2c(=O)n1-c1ccccc1)Nc1ccc2c(c1)CCC2`, the inhibition is -1.05% (inactive).

As for `O=C(CCCSc1nc2cccc(F)c2c(=O)n1-c1ccc(Cl)c(Cl)c1)Nc1ccc2c(c1)CCC2`, the inhibition was -2.38% (inactive).

As to `O=C(CCCCSc1nc2cccc(F)c2c(=O)n1-c1ccc(F)c(F)c1)Nc1ccc2c(c1)CCC2`, the inhibition is 0.09% (inactive).

With `O=C(CSc1nc2ccccc2c(=O)n1-c1ccccc1)Nc1nc2cc(Cl)ccc2o1`, the inhibition was 8.31% (inactive).

As for `O=C(CSc1nc2cccc(F)c2c(=O)n1-c1ccc(F)c(Br)c1)Nc1ccc2c(c1)CCC2`, the inhibition is -2.48% (inactive).

Regarding `O=C(CSc1nc2cccc(F)c2c(=O)n1-c1ccccc1)NC1Cc2ccccc2C1`, the inhibition is 0.89% (inactive).

For the molecule `O=C(CSc1nc2cccc(F)c2c(=O)n1-c1ccccc1)NC1CCCc2ccccc21` (stereo not given), the inhibition was -0.94% (inactive).

Consider `O=C(CSc1nc2ccccc2c(=O)n1-c1ccc(F)c(Cl)c1)Nc1cccc2ccccc12`, for which the inhibition was -1.32% (inactive).

On to `Cc1csc(NC(=O)CSc2nc3ccccc3c(=O)n2-c2ccccc2)n1`, for which the inhibition was -3.31% (inactive).

With `O=C(CSc1nc2cccc(F)c2c(=O)n1-c1ccccc1)Nc1cccc2c1CCC2`, the inhibition was -1.2% (inactive).

For the molecule `O=C(CSc1nc2ccccc2c(=O)n1-c1ccccc1)Nc1ccc2c(c1)OCO2`, the inhibition is 2.32% (inactive).

In the case of `O=C(CSc1nc2ccccc2c(=O)n1-c1ccccc1)Nc1cccc2c1CCC2`, the inhibition was 1.83% (inactive).

As to `O=C(CSc1nc2ccccc2c(=O)n1-c1ccccc1)Nc1cccc(-c2ccccc2)c1`, the inhibition was 0.04% (inactive).

With `O=C(CSc1nc2ccccc2c(=O)n1-c1ccccc1)NC1CCc2ccccc21` (stereo not given), the inhibition is -0.61% (inactive).

For the molecule `Cc1nc2cc(NC(=O)CSc3nc4ccccc4c(=O)n3-c3ccccc3)ccc2s1`, the inhibition is 2.35% (inactive).

Turning to `O=C(CSc1nc2ccccc2c(=O)n1-c1ccccc1)Nc1nc2ccc([N+](=O)[O-])cc2s1`, the inhibition was -2.6% (inactive).

Turning to `O=C(CCCCSc1nc2cccc(F)c2c(=O)n1-c1cc(F)c(F)c(F)c1)Nc1ccc2c(c1)CCC2`, the inhibition is -1.19% (inactive).

As to `O=C(CCCSc1nc2cccc(F)c2c(=O)n1-c1ccc(Cl)c(F)c1)Nc1ccc2c(c1)CCC2`, the inhibition is -2.66% (inactive).

On to `O=C(CSc1nc2ccccc2c(=O)n1-c1ccccc1)Nc1nccs1`, for which the inhibition was -0.12% (inactive).

Consider `O=C(CCSc1nc2cccc(F)c2c(=O)n1-c1ccc(F)c(F)c1)Nc1ccc2c(c1)CCC2`, for which the inhibition was -1.56% (inactive).

With `O=C(CCSc1nc2cccc(F)c2c(=O)n1-c1ccc(F)c(Br)c1)Nc1ccc2c(c1)CCC2`, the inhibition is -1.52% (inactive).

For the molecule `O=C(CCCCSc1nc2cccc(F)c2c(=O)n1-c1ccc(Cl)c(Cl)c1)Nc1ccc2c(c1)CCC2`, the inhibition is -1.71% (inactive).

Consider `O=C(CSc1nc2ccccc2c(=O)n1-c1ccccc1)NC1Cc2ccccc2C1`, for which the inhibition was -2% (inactive).

On to `O=C(CSc1nc2cccc(F)c2c(=O)n1-c1ccccc1)Nc1cccc2ccccc12`, for which the inhibition is -1.94% (inactive).

`O=C(CCSc1nc2cccc(F)c2c(=O)n1-c1ccc(Cl)c(Cl)c1)Nc1ccc2c(c1)CCC2`: the inhibition is -1.05% (inactive).

Regarding `O=C(CSc1nc2ccccc2c(=O)n1-c1ccc(Cl)c(Cl)c1)Nc1cccc2ccccc12`, the inhibition was -1.85% (inactive).

For `O=C(CCCCSc1nc2cccc(F)c2c(=O)n1-c1ccc(Cl)c(F)c1)Nc1ccc2c(c1)CCC2`, the inhibition was -0.34% (inactive).

For the molecule `O=C(CCCSc1nc2cccc(F)c2c(=O)n1-c1cc(F)c(F)c(F)c1)Nc1ccc2c(c1)CCC2`, the inhibition is -2.94% (inactive).

As for `O=C(CCCSc1nc2cccc(F)c2c(=O)n1-c1ccccc1)Nc1ccc2c(c1)CCC2`, the inhibition was -2.02% (inactive).

For the molecule `O=C(CCCSc1nc2cccc(F)c2c(=O)n1-c1ccc(F)c(Br)c1)Nc1ccc2c(c1)CCC2`, the inhibition is -2.67% (inactive).

Regarding `O=C(CCSc1nc2ccccc2c(=O)n1-c1ccc(Cl)c(Cl)c1)Nc1ccc2c(c1)CCC2`, the inhibition was -2.58% (inactive).

On to `O=C(CSc1nc2cccc(F)c2c(=O)n1-c1ccc(Cl)c(Cl)c1)Nc1ccc2c(c1)CCC2`, for which the inhibition was -2.48% (inactive).

Regarding `O=C(CSc1nc2ccccc2c(=O)n1-c1ccccc1)N1CCCCCC1`, the inhibition was -1.69% (inactive).

Take `O=C(CCCCSc1nc2cccc(F)c2c(=O)n1-c1ccc(F)c(Br)c1)Nc1ccc2c(c1)CCC2`: the inhibition is -1.81% (inactive).

With `O=C(CSc1nc2ccccc2c(=O)n1-c1ccc(Cl)c(Cl)c1)Nc1ccc2c(c1)OCO2`, the inhibition is -2.42% (inactive).

With `O=C(CCCSc1nc2cccc(F)c2c(=O)n1-c1ccc(F)c(F)c1)Nc1ccc2c(c1)CCC2`, the inhibition is -2.48% (inactive).

On to `O=C(CSc1nc2ccccc2c(=O)n1-c1ccccc1)Nc1ncc([N+](=O)[O-])s1`, for which the inhibition was -1.85% (inactive).

`O=C(CSc1nc2ccccc2c(=O)n1-c1cc(Cl)cc(Cl)c1)NC1Cc2ccccc2C1`: the inhibition was -3.26% (inactive).

Consider `O=C(CCSc1nc2cccc(F)c2c(=O)n1-c1ccc(Cl)c(F)c1)Nc1ccc2c(c1)CCC2`, for which the inhibition was 3.09% (inactive).

`O=C(CCCCSc1nc2ccccc2c(=O)n1-c1ccccc1)Nc1ccc2c(c1)CCC2`: the inhibition was 18.5% (inactive).

`O=C(CCCSc1nc2ccccc2c(=O)n1-c1ccccc1)Nc1ccc2c(c1)CCC2`: the inhibition was -0.62% (inactive).

For `O=C(CSc1nc2ccccc2c(=O)n1-c1ccccc1)Nc1ccc2ncsc2c1`, the inhibition is -0.65% (inactive).

The next assay concerns West Nile virus-infected cells, antiviral inhibition. The description is as above.
Details: not given
With `O=C(CSc1nc2ccccc2c(=O)n1-c1ccccc1)Nc1ccc2c(c1)CCC2`, the IC50 is 9.17 µM and 11.7 µM.

With `O=C(CSc1nc2ccccc2c(=O)n1-c1ccc(Cl)c(Cl)c1)Nc1ccc2c(c1)CCC2`, the IC50 is 8.09 µM.

For `O=C(CSc1nc2cccc(F)c2c(=O)n1-c1cc(F)c(F)c(F)c1)Nc1ccc2c(c1)CCC2`, the IC50 is 16.5 µM.

For `O=C(CSc1nc2ccccc2c(=O)n1-c1cc(Cl)cc(Cl)c1)Nc1ccc2c(c1)CCC2`, the IC50 was 2.73 µM.
